“Also recorded” adds a separate entry of the source.

Data set [1] concerns bovine choroidal microvascular endothelial cells (BCEC). As to the kind of experiment: BCEC proliferation assay. The following applies: for stimulation of BCEC proliferation by structurally related molecules: with or without VEGF, 0.04 μM-5 mM; for block of ManN effects on BCEC proliferation by monosaccharides: monosaccharide at maximum 1:10 molar ratio, added after 2 hours ManN; for stimulatory effect of hexosamines on BCEC proliferation: tested alongside ManN, FIG. 1D. It counts as cell-based. Here is the method: Proliferation assays with BCECs and BRECs were performed. Log-phase growing BCECs or BRECs (passage <10) were trypsinized, re-suspended and seeded in 96-well plates (no coating) in low-glucose DMEM supplemented with 10% bovine calf serum, 2 mM glutamine, and antibiotics (growth medium), at a density of 1200-1500 cells per well in 200 μl volume. All reagents were added at the indicated final concentrations. […] Fluorescence was measured at 530 nm excitation wavelength and 590 nm emission wavelength. The experiments were repeated at least three times. […] On each 96-well plate, untreated and VEGF-treated (10/ng/ml) wells were included to monitor plate-to-plate variations. 20% methanol or 0.05% DMSO served as negative controls. 0.05% DMSO served as negative controls when Cas was tested in these cells. Human […] and human adult […] were split into Gelatin-coated 96 wells (2000 cells per well) in low glucose DMEM containing 10% FBS. 1200 cells/well was set up for proliferation assay in low glucose media containing FBS. […] HUVEC (p7-10) were grown on gelatin-coated plate until it reached 70-80% confluency. On the day of the assay, cells were dissociated with 0.05% trypsin, which was neutralized with 0.5% FBS-containing EBM. Cells were briefly spun and then re-suspended in 0.5% FBS-media. Cells were counted and plated in 96-well, 1000 cells/well. Triplicate wells were used for each treatment. Data were collected at day 3, and then cells were fixed in 4% paraformaldehyde for 15 min before adding crystal violet. Cell-covered areas were quantified after taking pictures by Image J software.

In another data set the test system is Bip, CHOP and ATF-6. As to the kind of experiment: Western blot of UPR responsive proteins in BCECs. It counts as cell-based, bovine. Conditions: for prevention of CHOP induction by ManN: 2 mM 4-PBA or 500 uM TUDCA, ManN at 400 uM and 5 mM; for restoration of ATF-6 expression: ManN at 400 uM. Here is the method: (§1) Cells were allowed to reach ˜80% confluency in 12-well plates. […] At various time points, plates were taken out of the incubator and kept on ice. Cell monolayers were first washed once with ice-cold PBS before lysis with 250 μl of Pierce RIPA buffer (ThermoFisher Scientific, Rockford, IL) or use 50 mM Tris-HCl (pH 7.6), 150 mM NaCl, 10% Glycerol, 1% NP-40 containing protease/Phosphatase inhibitor cocktail (100×) (Cell signaling, #5872). Lysates were collected and mixed with 4×Bolt LDS Sample Buffer (Novex, Carlsbad, CA) in the presence of Halt protease inhibitors and phosphatase inhibitor cocktail (ThermoFisher scientific, #NP0007). The samples were subjected to SDS-PAGE (Bolt 4-12% Bis-Tris Plus, Invitrogen) using Bolt MES SDS running buffer or NuPAGE 3-8% Tris-Acetate gel using Tris-Acetate SDS running buffer (Novex). HUVECs (passage 6-8) were plated in EBM-2 basal medium (Lonza) with 0.2% FBS. […] Equal amounts of protein lysates were analyzed by SDS-PAGE and blotted with the indicated antibodies. Proteins were transferred using Tris-Glycine buffer with 20% Methanol (Proteonomics grade) (Apex BioResearch Products). Membranes were first incubated with 5% milk in TBST, pH 7.6 (TEKnova, Hollister, CA), followed by blotting with primary and secondary antibodies. ECL anti-rabbit IgG, horseradish peroxidase linked whole antibody from donkey or sheep anti-mouse were obtained from GE Healthcare (UK limited). SuperSignal West Dura Extended Duration substrate was from ThermoFisher Scientific. In some cases, the same PVDF membranes were stripped by 8-min incubation in the Restore Plus Western Blot Stripping Buffer (ThermoFisher Scientific) to show total specific protein expression, followed by second stripping for β-actin expression.
(Immunoblotting shows a protein as a band on a membrane.)

In data set [2] the test system is BCEC confluent monolayers. As to the kind of experiment: BCEC scratch assay. The following applies: over 48 hours relative to control. In kind it is cell-based, bovine. Here is the method:
BCECs (passage 6-10) and HUVEC (passage 6-8) were used in this assay. Cells were grown until about 80% confluency in 6-well plates, washed twice with PBS and then starved in serum-free DMEM (low Glucose, Hyclone) for 5 hrs before making a “scratch” using 1 ml tip. Cell monolayers were briefly washed once with serum-free media, followed by various treatments in media containing 1% FBS. 48 hrs later, the assay was stopped by adding 2 ml 4% paraformaldehyde. 20 min later, fixed cells were stained with 1 ml Crystal Violet (Sigma). Plates were washed gently under the running tap water and air-dried before taking pictures. Images were acquired by ZEISS Discovery […] microscopy equipped with […] camera. Quantification of wound closure was done using AxioVision LE Rel.4.4 software. Six images were taken for each sample and six measurements (in pixel) were made on each image using AxioVision LE Rel.4.4 software.

A further data set deals with JNK/c-Jun. The data set is described as follows: Western blot of JNK pathway activation in BCECs. It counts as cell-based, bovine. The following applies: media without growth factors. As to the method: as §1, with “80%” for “˜80%”
A further data set deals with VEGFR2. As to the kind of experiment: Western blot of VEGFR2 molecular mass in BCECs and BRECs. It counts as cell-based, bovine. The following applies: 24 hours; SDS-PAGE. Here is the method: Glycerol-free PNGase F was obtained from New England Biolabs (Ipswich, MA). Briefly, BCECs were lysed with NP-40 containing proteinase inhibitors (Thermo Scientific, Waltham, MA). Lysates were cleared at 4° C. at 5000 g for 25 mins. Total protein content was measured using Pierce BCA protein assay kit (ThermoScientific). […] of protein was mixed with 10× denaturing buffer and H2O to a total volume of […]. Glycoproteins were denatured at 100° C. for 10 mins, followed by adding Glycobuffer and PNGase F. The reaction was carried out at 37° C. for 2 hr.
as §1

The test system of the next data set is ERK and AKT. The data set is described as follows: Western blot of ERK and AKT activation in HUVEC and hDMVECs. It counts as cell-based, human. The following applies: hDMVECs. As to the method:
as §1, with “80%” for “˜80%”, “ECL anti-rabbit IgG, horseradish peroxidase linked whole antibody from donkey or sheep anti-mouse were obtained from GE Healthcare (UK limited). SuperSignal West Dura Extended Duration substrate was from ThermoFisher Scientific. In some cases, the same PVDF membranes were stripped by 8-min incubation in the Restore Plus Western Blot Stripping Buffer (ThermoFisher Scientific) to show total specific protein expression, followed by second stripping for β-actin expression.” left out

For data set [3], the system named is ERK, AKT, mTOR, CREB, ACC and eNOS. The data set is described as follows: Western blot of signal transduction pathways in BCECs. In kind it is cell-based, bovine. Here is the method:
as §1

For data set [4] the following is noted: mouse, in vivo, po.
A further data set relates to retinal vasculature. The data set is described as follows: Retinal neovascularization after intravitreal injection. It counts as in vivo, mouse. Conditions: intravitreal 500 ng ManN or Kif, 200 ng bFGF; seven days. As to the method: Assessment of retinal angiogenesis following intravitreal administration was done. Briefly, 6-8 weeks old C57BL/6 male mice were randomly allocated to different groups and anesthetized with ketamine/Xylazine cocktail. The indicated amounts of ManN, Kif or bFGF (R&D systems, AF-233-NA) in 1 μl of PBS and PBS vehicle control were injected intravitreally with a 33-gauge Hamilton syringe. Seven days after injection, animals were euthanized. Eyes were then enucleated and fixed in 4% paraformaldehyde (PFA) for 30 mins. Retinas were separated and stained with anti-CD31 immunofluorescence (IF) to evidence the vasculature. Evaluations were performed by an investigator blinded to the treatment. For CD31 IF, rat anti-mouse antibody (BD Biosciences, CAT #550274) was diluted 1:100 and incubated overnight at 4° C. After 4-hour incubation with the Alexa Fluor-488-conjugated anti-rat antibody (Life Technologies, A11006), whole mounts were imaged via the 488 nm channel using A1R Confocal STORM super-resolution system (Nikon). Quantification of vascular density in choroids and retina was carried out by Image J. Each experiment was repeated three times with similar results, and each treatment group consists of 5 individual samples.

For the compound `O=C(O)CCCc1ccccc1` [4-PBA, 4-phenylbutyric acid], the “additivity between ManN and VEGF after chemical chaperon pre-treatment” value in data set [1] (1 mM 4-PBA) is given as “largely abolished”. Besides, the “reversal of bell-shaped activity of ManN on BCEC proliferation by chemical chaperon” value in data set [1] (pre-treating with 1 mM 4-PBA for 4 hours, absence or presence of VEGF) is recorded as “effectively reverse the bell-shaped activity of ManN”. In the data set with Bip, CHOP and ATF-6, the “prevention of CHOP induction by ManN” value is recorded as “prevent the induction of CHOP expression” and the “restoration of ATF-6 expression” value is on record as “restore the expression of ATF-6”.
As for `O[C@H]1[C@H](O)[C@@H](O)CN2CC[C@H](O)[C@H]12` [Cas, Castanospermine, reference compound], the “activity of glycosylation inhibitors in BCEC scratch assay” value in data set [2] is reported as “significant activity”. Further, the “activation of JNK pathway (JNK and downstream c-Jun)” value in the data set on JNK/c-Jun was “able to activate the JNK pathway”. Moreover, the “BCEC proliferation with N-glycosylation inhibitors” value in data set [1] (absence or presence of 5 ng/ml VEGF) is reported as “stimulated in a dose-dependent fashion”. Besides, in the data set with Bip, CHOP and ATF-6 (media without growth factors for 24 hours), the “Bip expression with glycosylation inhibitors” value is listed as “dose-dependent induction of Bip expression”. Further, the “VEGFR2 molecular mass after glycosylation inhibitor treatment” value with VEGFR2 is “reduction in VEGFR2 molecular mass”. Besides, the “activation of ERK” value is recorded as “less obvious” with ERK and AKT; “less obvious; also recorded: did not activate ERK” in data set [3] (40 uM, BCECs).
As for `Cl.NCC(=O)[C@@H](O)[C@H](O)[C@H](O)CO` [D-isoglucosamine, 1-Amino-1-deoxy-D-Fructose hydrochloride], the “stimulation of BCEC proliferation by structurally related molecules” value (from here on “stimulation of BCEC proliferation”) in [1] is on record as “None of these molecules stimulated BCEC proliferation”.
For `N[C@@H]1C(O)O[C@H](COP(=O)(O)O)[C@@H](O)[C@@H]1O` (stereo partly drawn) [ManN-6p, ManN-6-phosphate], the “ManN-6p in ischemic leg muscle” value in data set [4] was 0.91+/−0.24 nmol/mg protein.
With `CC(=O)N[C@@H]1C(O)O[C@H](CO)[C@@H](O)[C@@H]1O` (stereo partly drawn) [ManNAc, N-acetyl-Mannosamine, reference compound], the “activation of ERK, AKT, mTOR, CREB, ACC and eNOS by other agents” value in [3] (40 μM, compared with ManN) was “induced a similar activation”.
In the case of `CC(=O)N[C@H]1[C@H]([C@H](O)[C@H](O)CO)OC(O)(C(=O)O)C[C@@H]1O` (stereo partly drawn) [N-Acetyl-neuraminic acid, N-Acetylneuraminic acid], the “stimulation of BCEC proliferation” value in [1] is “None of these molecules stimulated BCEC proliferation”.
As for `C[C@H](CCC(=O)NCCS(=O)(=O)O)[C@H]1CC[C@H]2[C@@H]3[C@@H](O)C[C@@H]4C[C@H](O)CC[C@]4(C)[C@H]3CC[C@]12C` [TUDCA, tauroursodeoxycholic acid], in the data set with Bip, CHOP and ATF-6, the “prevention of CHOP induction by ManN” value is recorded as “not” and the “restoration of ATF-6 expression” value is recorded as “much weaker”.
As for `C[C@H](O)[C@@H](O)[C@@H](O)[C@H](O)C=O` [fucose, reference compound], the “block of ManN effects on BCEC proliferation by monosaccharides” value in data set [1] is recorded as “not”.
For `N[C@H]1C(O)O[C@H](CO)[C@H](O)[C@@H]1O` (stereo partly drawn) [galactosamine, D-(+)-Galactosamine], the “stimulatory effect of hexosamines on BCEC proliferation” value in [1] is on record as “none of these hexosamines had significant stimulatory effects”.
Take `O=C[C@H](O)[C@@H](O)[C@@H](O)[C@H](O)CO` [galactose, reference compound]: the “block of ManN effects on BCEC proliferation by monosaccharides” value in [1] is on record as “not”.
In the case of `N[C@H]1C(O)O[C@H](CO)[C@@H](O)[C@@H]1O` (stereo partly drawn) [glucosamine, D-(+)-Glucosamine], the “stimulatory effect of hexosamines on BCEC proliferation” value in [1] is reported as “none of these hexosamines had significant stimulatory effects”.
Turning to `CNC[C@H](O)[C@@H](O)[C@H](O)[C@H](O)CO` [meglumine, Meglumine], the “stimulation of BCEC proliferation” value in data set [1] is listed as “None of these molecules stimulated BCEC proliferation”.
With `C[C@@H](O[C@H]1[C@H](O)[C@@H](CO)OC(O)[C@@H]1N)C(=O)O` (stereo partly drawn) [muramic acid, Muramic acid], in data set [1], the “stimulation of BCEC proliferation” value was “None of these molecules stimulated BCEC proliferation”.
In the case of “bFGF: bFGF growth factor purchased from R&D systems, positive control”, in the data set on retinal vasculature, the “increase in density of retinal vessels compared to PBS group” value is recorded as “about 35%”.
